Assay results from patent publication US20070009571A1, “Novel haptotactic peptides” (Hadasit Medical Research Services & Development Ltd., priority 1998, published 2007).
No end group written: not given here.

B1: γ chain: isolated γ chain of fibrinogen (protein, UniProt P02679 27-453, looked up)
Fibrinogen gamma chain: YVATRDNCCILDERFGSYCPTTCGIADFLSTYQTKVDKDLQSLEDILHQVENKTSEVKQLIKAIQLTYNPDESSKPNMIDAATLKSRKMLEEIMKYEASILTHDSSIRYLQEIYNSNNQKIVNLKEKVAQLEAQCQEPCKDTVQIHDITGKDCQDIANKGAKQSGLYFIKPLKANQQFLVYCEIDGSGNGWTVFQKRLDGSVDFKKNWIQYKEGFGHLSPTGTTEFWLGNEKIHLISTQSAIPYALRVELEDWNGRTSTADYAMFKVGPEADKYRLTYAYFAGGDAGDAFDGFDFGDDPSDKFFTSHNGMQFSTWDNDNDKFEGNCAEQDGSGWWMNKCHAGHLNGVYYQGGTYSKASTPNGYDNGIIWATWKTRWYSMKKTTMKIIPFNRLTIGEGQQHHLGGAKQVRPEHPAETEYDSLYPEDDL
modifications: Fibrinogen gamma chain
notes: isolated γ chain of fibrinogen

Assays:
[1] = tested on: EC cells (BAEC); test: FACS analysis of binding of FITC-labeled peptides; assay type: cell-based, bovine; conditions: 10 μg/ml or 100 μg/ml, medium with 0.1% albumin
Method: EC and HF cell monolayers were washed and then incubated with trypsin-versene. Cells were then washed with growth medium and resuspended in medium with 0.1% albumin. FITC-labeled peptide-Cβ (SEQ ID NO:1) was incubated with 5×10^5 EC cells (10 μg/ml or 100 μg/ml) or with 2.5×10^5 HF cells (100 μg/ml) in medium with 0.1% albumin. FITC-labeled peptide-CαE (SEQ ID NO:3) and Cα (SEQ ID NO:4) (10 μg/ml) was incubated with 5×10^5 EC cells in medium with 0.1% albumin. Cells were then washed with PBS and 1% albumin. Cells were resuspended in PBS and 1% albumin and then filtered through a mesh for FACS analysis, in which the FITC tluorescence was measured for each cell.
The control is without FITC-labeled peptide (background fluorescence).
In competition experiments, cells were incubated with various concentrations of unlabeled Cβ (SEQ ID NO:1) for 15 mins, an aliquot of Cβ^FITC (4 mM) was added and the sample was subjected to FACS analysis. […] The Cβ^FITC (SEQ ID NO:1) uptake experiments best fitted a linear-quadratic curve-fit.

[2] = tested on: EC (BAEC); test: Uptake of FITC-peptides by fluorescence microscopy; assay type: cell-based, bovine; conditions: 100 μg/ml, 30 min and 60 min
Method: (§1) The cells examined were grown in 6-well plates on cover slips to reach near confluence. At the time of examination, the cover slips were inverted and put on a microscope slide supported by 2 thin spacers so that a thin gap (˜2 mm) was left between the cells on the coverslip and the slide. This was filled with culture medium. […] At different time points, medium was replaced with fresh medium and the fluorescence was viewed and photographed, using an Olympus fluorescent microscope system.
(§2) Accumulation of the FITC-peptide in the cytoplasm and around the nucleus was clearly observed. […] After a longer exposure of more than 1 hour or with fixed cells, accumulation of the FITC-peptide in the cytoplasm and around the nucleus was clearly observed (data not shown). In most cases, the fluorescence became concentrated in discrete cytoplasmic vesicles.

[3] = tested on: human fibroblasts (HF); test: Uptake of FITC-peptides by fluorescence microscopy; assay type: cell-based; set-up: binding and internalization of dissolved FITC-peptide, fluorescent microscopy: dose or concentration left out as unconfirmed
Method: as §1, §2

[4] = tested on: human fibroblasts; conditions: isolated constituent chains of fibrinogen; Gray et al. 1993; cited from earlier work

Molecule | binding/uptake of FITC-labeled peptide by FACS, in words [1] | binding and internalization of dissolved FITC-peptide, fluorescent microscopy [2] | uptake of FITC-peptide by fluoro-microscopy ([3]; 10 μM, human fibroblasts) | binding and internalization of dissolved FITC-peptide, fluorescent microscopy ([3]; HF, 30 min and 60 min) | stimulation of fibroblast proliferation above controls [4]
FITC-CαE: FITC-labeled peptide CαE (SEQ ID NO:3) (RGADYSLRAVRMKIRPLVTQ; not fully specified (N-terminus); also: FITC label, position not given here) | taken up by cells | binding and internalization | uptake | binding and internalization | 
B1 |  |  |  |  | no effect
